Results from patent US8710045B2, “Agents for preventing and treating disorders involving modulation of the ryanodine receptors” (The Trustees of Columbia University in the City of New York, priority 2004, dated 2014).

Key:
[1] = system: FDB muscle fibers; assay: Confocal calcium imaging of isolated FDB muscle fibers during fatigue protocol; assay type: in vivo, mouse; settings: FDB fibers from treated, chronically exercised mice
Protocol: Confocal microscopy: Single flexor digitorum brevis (FDB) fibers were enzymatically dissociated by standard methods (Reiken, Lacampagne et al. 2003). Briefly, the muscle was dissected from the paw, placed in a modified Ringer's solution, and stripped of all fascia. Type 1 collagenase-(2 mg/ml, Sigma) in Ringer's solution was prepared fresh, and the muscle was digested for 2 hours at 37° C. in a incubator shaking at 125 rpm. The muscle was placed in fresh Ringer's and gently triturated. Single fibers were collected and allowed to attach to glass coverslips coated in laminin (Sigma L-2020). The cells were loaded with 2 μM fluo-4-AM ester (Invitrogen) for 20 minutes, placed on the Zeiss Live 5 microscope stage and superfused for 15 minutes with Ringer's. The fibers were paced at 1 Hz for 10 minutes prior to imaging baseline fiber properties. Linescan images were continuously acquired at 1 ms scan rate during a tetanic sequence consisting of 300 ms stimulation at 100 Hz with a 2 Hz train rate. Images were analyzed in ImageJ, and an F/F0 ratio was calculated for each fiber.
Reduced fatiguability in calstabin1 rebound FDB muscle fibers: Flexor digitorum brevis (FDB) muscle fibers were enzymatically dissociated from mice following the chronic exercise protocol and loaded with the calcium indicator fluo-4. […] The kinetics of Ca^2+ release and reuptake during single twitches at 1 Hz were assessed.

[2] = target: T1, RyR1 (Mus musculus, UniProt E9PZQ0); assay: RyR1 single channel recording in planar lipid bilayers from exercised mice; assay type: in vivo; settings: 90 nM [Ca2+]cis
T1 construct: RyR1 was immunoprecipitated from soleus muscle homogenates of mice following 21 days of exercise; from tissue; host or cells: mouse hind-limb skeletal muscle (soleus, EDL; SR microsomes for bilayer recording)
T1 sequence (E9PZQ0 whole entry): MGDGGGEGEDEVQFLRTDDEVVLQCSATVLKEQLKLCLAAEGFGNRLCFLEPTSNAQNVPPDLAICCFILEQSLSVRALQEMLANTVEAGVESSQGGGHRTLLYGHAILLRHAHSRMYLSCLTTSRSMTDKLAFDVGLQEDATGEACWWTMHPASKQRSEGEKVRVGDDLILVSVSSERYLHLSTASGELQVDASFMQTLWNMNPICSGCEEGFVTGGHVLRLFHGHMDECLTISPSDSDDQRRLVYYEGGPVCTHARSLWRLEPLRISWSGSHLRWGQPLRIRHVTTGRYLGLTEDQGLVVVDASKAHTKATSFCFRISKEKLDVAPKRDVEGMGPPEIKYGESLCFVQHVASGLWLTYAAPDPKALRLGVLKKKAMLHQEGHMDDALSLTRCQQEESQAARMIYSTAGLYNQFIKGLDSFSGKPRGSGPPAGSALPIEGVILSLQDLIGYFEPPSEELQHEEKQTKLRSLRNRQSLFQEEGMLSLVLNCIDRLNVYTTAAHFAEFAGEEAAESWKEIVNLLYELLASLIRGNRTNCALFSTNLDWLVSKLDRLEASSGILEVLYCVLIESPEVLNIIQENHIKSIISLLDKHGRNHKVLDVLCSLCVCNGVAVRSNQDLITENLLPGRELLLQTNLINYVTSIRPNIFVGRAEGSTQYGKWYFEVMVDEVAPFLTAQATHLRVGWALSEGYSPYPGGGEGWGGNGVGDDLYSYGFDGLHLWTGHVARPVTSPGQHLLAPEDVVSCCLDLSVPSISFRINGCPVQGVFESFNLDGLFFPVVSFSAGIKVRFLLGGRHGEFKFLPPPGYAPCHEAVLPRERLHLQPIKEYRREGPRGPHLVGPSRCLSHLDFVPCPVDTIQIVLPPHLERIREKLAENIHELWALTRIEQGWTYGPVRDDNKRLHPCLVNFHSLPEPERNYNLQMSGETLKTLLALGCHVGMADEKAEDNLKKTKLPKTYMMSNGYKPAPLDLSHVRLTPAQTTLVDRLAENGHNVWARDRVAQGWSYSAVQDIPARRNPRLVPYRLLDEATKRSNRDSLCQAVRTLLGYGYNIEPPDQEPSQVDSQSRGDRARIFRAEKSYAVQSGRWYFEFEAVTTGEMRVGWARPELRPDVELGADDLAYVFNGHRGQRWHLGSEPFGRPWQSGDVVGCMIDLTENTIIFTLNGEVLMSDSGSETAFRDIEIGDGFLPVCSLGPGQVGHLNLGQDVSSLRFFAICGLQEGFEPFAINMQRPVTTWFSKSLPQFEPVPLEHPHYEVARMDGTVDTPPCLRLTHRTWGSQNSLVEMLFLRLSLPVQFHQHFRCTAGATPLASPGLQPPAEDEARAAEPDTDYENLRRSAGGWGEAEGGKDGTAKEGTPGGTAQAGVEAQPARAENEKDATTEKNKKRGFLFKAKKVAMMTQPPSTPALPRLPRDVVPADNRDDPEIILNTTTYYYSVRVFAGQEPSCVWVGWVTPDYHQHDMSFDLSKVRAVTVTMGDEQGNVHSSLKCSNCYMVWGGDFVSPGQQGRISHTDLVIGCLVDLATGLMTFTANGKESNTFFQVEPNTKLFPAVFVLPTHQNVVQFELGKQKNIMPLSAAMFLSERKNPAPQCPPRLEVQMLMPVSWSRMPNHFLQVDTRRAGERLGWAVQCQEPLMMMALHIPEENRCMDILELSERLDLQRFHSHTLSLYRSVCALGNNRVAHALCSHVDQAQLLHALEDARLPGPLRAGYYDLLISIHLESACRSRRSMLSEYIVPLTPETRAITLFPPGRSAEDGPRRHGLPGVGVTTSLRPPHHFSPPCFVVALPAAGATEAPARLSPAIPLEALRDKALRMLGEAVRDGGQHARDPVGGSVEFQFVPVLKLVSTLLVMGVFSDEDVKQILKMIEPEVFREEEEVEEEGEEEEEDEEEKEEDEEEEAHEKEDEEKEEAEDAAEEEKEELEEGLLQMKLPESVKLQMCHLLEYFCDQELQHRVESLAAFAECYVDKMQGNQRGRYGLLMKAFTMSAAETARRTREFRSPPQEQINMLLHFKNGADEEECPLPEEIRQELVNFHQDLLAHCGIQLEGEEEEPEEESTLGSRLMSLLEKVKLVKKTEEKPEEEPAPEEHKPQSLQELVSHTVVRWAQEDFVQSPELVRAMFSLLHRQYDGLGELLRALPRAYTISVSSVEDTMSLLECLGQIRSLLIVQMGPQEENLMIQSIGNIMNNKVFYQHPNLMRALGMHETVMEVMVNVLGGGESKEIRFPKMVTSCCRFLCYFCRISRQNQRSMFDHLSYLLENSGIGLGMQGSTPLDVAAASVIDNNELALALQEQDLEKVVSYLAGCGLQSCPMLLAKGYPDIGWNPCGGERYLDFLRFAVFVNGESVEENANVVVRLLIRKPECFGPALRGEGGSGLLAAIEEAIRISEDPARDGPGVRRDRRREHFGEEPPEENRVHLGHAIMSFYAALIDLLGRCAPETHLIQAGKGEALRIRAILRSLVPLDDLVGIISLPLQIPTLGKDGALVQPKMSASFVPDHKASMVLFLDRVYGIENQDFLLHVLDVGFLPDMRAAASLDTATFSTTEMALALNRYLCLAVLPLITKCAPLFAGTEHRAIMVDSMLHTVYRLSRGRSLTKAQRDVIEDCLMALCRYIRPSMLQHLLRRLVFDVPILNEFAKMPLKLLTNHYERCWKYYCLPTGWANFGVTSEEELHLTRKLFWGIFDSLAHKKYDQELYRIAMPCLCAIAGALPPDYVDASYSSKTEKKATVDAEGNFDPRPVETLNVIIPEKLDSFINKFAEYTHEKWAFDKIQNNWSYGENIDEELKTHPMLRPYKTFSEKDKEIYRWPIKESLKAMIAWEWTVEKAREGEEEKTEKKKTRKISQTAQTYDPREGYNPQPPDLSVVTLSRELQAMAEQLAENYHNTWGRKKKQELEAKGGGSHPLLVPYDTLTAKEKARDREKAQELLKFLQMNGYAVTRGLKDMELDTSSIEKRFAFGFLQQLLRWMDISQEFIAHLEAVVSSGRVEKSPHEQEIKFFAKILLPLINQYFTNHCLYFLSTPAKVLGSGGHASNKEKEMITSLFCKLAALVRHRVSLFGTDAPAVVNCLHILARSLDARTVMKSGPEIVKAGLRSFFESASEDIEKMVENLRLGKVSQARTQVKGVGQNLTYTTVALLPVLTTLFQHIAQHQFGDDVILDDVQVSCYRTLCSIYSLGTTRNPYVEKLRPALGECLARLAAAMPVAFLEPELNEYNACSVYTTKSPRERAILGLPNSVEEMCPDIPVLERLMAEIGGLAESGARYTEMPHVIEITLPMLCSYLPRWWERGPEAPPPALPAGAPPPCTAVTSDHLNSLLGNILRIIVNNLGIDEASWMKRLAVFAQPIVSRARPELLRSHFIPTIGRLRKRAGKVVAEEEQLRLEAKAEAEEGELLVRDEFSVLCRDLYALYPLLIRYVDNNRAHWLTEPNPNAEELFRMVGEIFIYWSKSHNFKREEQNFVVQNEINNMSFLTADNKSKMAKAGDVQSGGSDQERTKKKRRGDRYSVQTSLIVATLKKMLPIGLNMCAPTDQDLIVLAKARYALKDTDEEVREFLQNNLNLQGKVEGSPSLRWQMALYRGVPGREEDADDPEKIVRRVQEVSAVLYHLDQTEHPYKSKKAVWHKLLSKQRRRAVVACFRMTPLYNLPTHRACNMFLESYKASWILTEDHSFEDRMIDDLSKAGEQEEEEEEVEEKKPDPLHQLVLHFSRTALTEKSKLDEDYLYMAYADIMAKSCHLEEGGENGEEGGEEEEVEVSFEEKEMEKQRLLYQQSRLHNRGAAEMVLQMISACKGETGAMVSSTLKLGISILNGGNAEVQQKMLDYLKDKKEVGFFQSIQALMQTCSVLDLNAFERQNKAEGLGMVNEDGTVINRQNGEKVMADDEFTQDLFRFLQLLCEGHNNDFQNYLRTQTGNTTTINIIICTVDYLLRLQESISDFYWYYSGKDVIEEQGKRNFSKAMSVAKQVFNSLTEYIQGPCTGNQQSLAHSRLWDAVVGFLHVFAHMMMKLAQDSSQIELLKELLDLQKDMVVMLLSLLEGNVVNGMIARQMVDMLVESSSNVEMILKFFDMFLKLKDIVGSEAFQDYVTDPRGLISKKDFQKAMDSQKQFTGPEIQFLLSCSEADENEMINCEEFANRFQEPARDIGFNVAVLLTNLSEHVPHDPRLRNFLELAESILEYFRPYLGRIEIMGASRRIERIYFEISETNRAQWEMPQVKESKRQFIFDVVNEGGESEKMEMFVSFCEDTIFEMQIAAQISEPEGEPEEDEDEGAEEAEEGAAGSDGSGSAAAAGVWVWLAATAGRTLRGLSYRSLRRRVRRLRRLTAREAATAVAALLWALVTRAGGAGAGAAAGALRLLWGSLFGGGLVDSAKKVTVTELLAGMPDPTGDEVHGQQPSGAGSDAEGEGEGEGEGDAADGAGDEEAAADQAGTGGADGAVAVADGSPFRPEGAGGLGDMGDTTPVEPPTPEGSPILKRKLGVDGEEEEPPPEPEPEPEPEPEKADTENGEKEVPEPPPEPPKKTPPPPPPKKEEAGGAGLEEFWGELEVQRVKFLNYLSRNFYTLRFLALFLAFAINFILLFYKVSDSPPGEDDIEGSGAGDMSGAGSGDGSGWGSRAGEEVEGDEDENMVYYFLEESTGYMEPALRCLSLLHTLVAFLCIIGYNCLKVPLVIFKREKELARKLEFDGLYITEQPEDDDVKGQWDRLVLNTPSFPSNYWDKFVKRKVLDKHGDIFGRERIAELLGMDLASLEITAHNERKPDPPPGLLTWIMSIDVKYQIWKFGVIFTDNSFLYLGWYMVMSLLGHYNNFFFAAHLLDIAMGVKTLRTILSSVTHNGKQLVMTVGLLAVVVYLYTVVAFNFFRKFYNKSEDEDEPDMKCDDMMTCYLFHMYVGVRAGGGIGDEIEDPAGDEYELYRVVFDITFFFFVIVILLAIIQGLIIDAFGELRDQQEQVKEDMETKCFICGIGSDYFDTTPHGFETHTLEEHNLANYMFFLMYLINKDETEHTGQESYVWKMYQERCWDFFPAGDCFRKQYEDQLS
T1 sequence (P26883 2-108 partner limits assumed): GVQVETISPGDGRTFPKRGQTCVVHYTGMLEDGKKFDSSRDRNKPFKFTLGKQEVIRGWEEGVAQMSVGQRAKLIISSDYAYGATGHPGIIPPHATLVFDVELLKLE
Protocol: RyR1 channels were reconstituted by spontaneous fusion of microsomes into the planar lipid bilayer (a mixture of phosphatidylethanolamine and phosphatidylserine in a 3:1 ratio, Avanti Polar Lipids). Planar lipid bilayers were formed across a 200 μm aperture in a polysulfonate cup (Warner Instruments, Inc.), which separated two bathing solutions (1 mM EGTA, 250/125 mM HEPES/Tris, 50 mM KCl, 0.5 mM CaCl2, pH 7.35 as cis solution and 53 mM Ba(OH)2, 50 mM KCl, 250 mM HEPES, pH 7.35 as trans solution). After incorporation, RyR1 channel activity was recorded continuously for at least 10 minutes. The concentration of free Ca^2+ in the cis chamber was calculated with WinMaxC program (version 2.50) (Bers, Patton et al. 1994). Single channel currents were recorded at 0 mV using the Axopatch 200A patch-clamp amplifier (Axon Instruments, USA) in gap-free mode, filtered at 1 kHz, and digitized at 10 kHz. Data acquisition was performed using Digidata 1322A and Axoscope 9 software (Axon Instruments, USA). The recordings were analyzed using Clampfit 10.1 (Molecular Devices, USA) and Origin software (ver. 6.0, Microcal Software, Inc., USA).
Chronic exercise results in leaky RyR1 Channels which can be reversed by calstabin1 rebinding: A critical issue is whether the biochemical changes in the RyR1 macromolecular complex identified during exercise result in changes in RyR1 channel activity. […]

[3] = system: calpain; assay: Calpain activity assay in EDL homogenates of chronically exercised mice; assay type: in vivo, mouse
Protocol: Calpain and Creatine Kinase Assays: Tissue calpain activities were measured using a calpain activity assay kit (Calbiochem, San Diego, Calif.) (FIG. 42B). This assay is based on the degradation of the fluorescent peptide substrate Suc-LLVY-AMC (Calbiochem). Muscle homogenates were diluted to a final concentration of 600 μg/ml and the calpain activity in the homogenate was determined as per manufactures instructions. Plasma creatine kinase (CK) activity was assayed using the regent kit from Pointe Scientific, Inc. (Canton, Mich.) (FIG. 42A). Plasma samples (duplicates, 5 μl each) were added to 200 μl of CK reagent and the change in absorbance at 340 nm was recorded over 4 minutes using a plate reader. The average absorbance change per minute was used to determine the CPK levels as per manufacturer's instructions.
Reduced calpain activation in muscle tissue and reduced muscle tissue damage due to calstabin1 rebinding: One possible mechanism by which calcium released by leaky RyR1 channels impairs exercise performance is the activation of a member of the calpain family of Ca^2+-dependent neutral proteases, which are known to be responsible for muscle damage in a number of pathophysiological states. […] Calpain activity in muscle homogenates was assessed by means of the degradation of the synthetic calpain substrate Suc-LLVY-AMC, which fluoresces upon cleavage by calpain.

For `COc1ccc2c(c1)CN(C)CCS2` [S107], the “peak tetanic calcium transients during fatigue protocol” value [1] was “delayed decline in peak tetanic calcium transients”, the “duration of the channel dwell times” value [2] was “Neither chronic exercise nor S107 had any effect” and the RyR1 open probability ([2]; Ex+S107 vs Ex+veh, p<0.005) was “significant decrease”. For the same compound, the “Calpain activity in EDL homogenates” value [3] was “significantly reduced”.
